Patent US20130296455A1, “NOVEL COMPOUND, DYE AND COLORED PHOTOSENSITIVE COMPOSITION” (ADEKA CORPORATION, priority 2011, published 2013)

Columns and labels:
Assay type in all cases: physicochemical
[1] = Evaluation of absorption wavelength property in CHCl3 solution; conditions: maximum absorption wavelength in CHCl3 solution
Method: (§1) Bis(4-formylphenyl)phenylamine (0.90 g, 3 mmol), ethyl cyanoacetate (0.75 g, 6.6 mmol) and ethanol (1.26 g) were added to a reaction container and heated to 50° C. under stirring. Triethylamine (0.06 g, 0.6 mmol) was then added dropwise, a reaction was conducted at 50° C. for 2 hours, and the reactant was cooled to room temperature. The reaction solution was subjected to liquid separation with ethyl acetate/water, the organic layer was dried under a reduced pressure, and the precipitated solid was washed with hexane to thereby give 1.13 g (yield 95.2%) of a yellow powder. That the obtained yellow powder was the intended substance was confirmed by ^1H-NMR and IR. Furthermore, the solubility and absorption wavelength properties (absorption wavelength λmax and absorption coefficient ∈) of compound No. 1 were measured. PGMEA was added dropwise to 0.1 g of the compound under stirring, and the solubility was defined as the concentration at the time when PGMEA had completely dissolved the compound. Furthermore, the absorption wavelength properties were measured in a CHCl3 solution.
The maximum absorption wavelengths of Compounds Nos. 1, 2, 5 and 46 and Comparative Compounds Nos. 1 and 2 obtained above were each evaluated in a CHCl3 solution. The results are shown in [Table 5].

[2] = Evaluation of heat-resistance by TG-DTA
Method: Compounds Nos. 1, 2, 5 and 46 and Comparative Compounds Nos. 1 and 2 obtained above were analyzed by TG-DTA to thereby measure the melting points and temperatures at 10% weight loss. The results are shown in [Table 4].

[3] = Evaluation of heat-resistance by calcination of coating of colored alkali-developable photosensitive composition; conditions: for relative intensity 230° C., 30 min: absorbance of coating at λmax after calcination 230° C.×30 min, before calcination (after exposure to light) = 100; for λmax: coating of colored alkali-developable photosensitive composition on glass substrate
Method: No. 3 obtained above, and comparative colored alkali-developable photosensitive composition No. 1 were each applied to a glass substrate under conditions of 410 rpm×7 sec, and dried on a hot plate (90° C., 90 sec). The obtained coating was exposed to light by a ultrahigh pressure mercury lamp (150 mJ/cm^2). The coating after the exposure to light was calcined under conditions of 230° C.×30 min. The absorbance of the coating before the calcination (after the exposure to light) and the absorbance of the coating after the calcination at the maximum absorption wavelength (λmax) of the compound (dye) as used were measured, and considering the absorption of the coating before the calcination (after the exposure to light) as 100, the absorbance of the coating after the calcination closer to 100 was evaluated to give higher heat-resistance. The results are shown in [Table 6].

Solubility in PGMEA = conditions: PGMEA added dropwise to 0.1 g of compound; concentration when completely dissolved
Method: as §1

## CCOC(=O)/C(C#N)=C/c1ccc(N(CC)CC)cc1 [Comparative Compound No. 1, reference compound]
[1]
  λmax: 430 nm
[2]
  temperatures at 10% weight loss: 259 °C
[3]
  relative intensity 230° C., 30 min: 12.5
  λmax: 430 nm

## CCOCCOC(=O)/C(C#N)=C/c1ccc(N(CC)CC)cc1 [Comparative Compound No. 2, reference compound]
[1]
  λmax: 432 nm
[2]
  temperatures at 10% weight loss: 252 °C

## CCOC(=O)/C(C#N)=C/c1ccc(N(c2ccccc2)c2ccc(/C=C(\C#N)C(=O)OCC)cc2)cc1 [Compound No. 1]
[1]
  λmax: 460 nm
Solubility in PGMEA
  solubility: 4.6 wt %
[2]
  temperatures at 10% weight loss: 355 °C
[3]
  relative intensity 230° C., 30 min: 94.9
  λmax: 458 nm

## CCOC(=O)/C(C#N)=C/c1ccc(N(c2ccc(/C=C(\C#N)C(=O)OCC)cc2)c2ccc(/C=C(\C#N)C(=O)OCC)cc2)cc1 [Compound No. 2]
[1]
  λmax: 452 nm
Solubility in PGMEA
  solubility: 3.5 wt %
[2]
  temperatures at 10% weight loss: 370 °C
[3]
  relative intensity 230° C., 30 min: 98.5
  λmax: 452 nm

## CCOC(=O)/C(C#N)=C/c1ccc(N2CCN(c3ccc(/C=C(\C#N)C(=O)OCC)cc3)CC2)cc1 [Compound No. 5]
[1]
  λmax: 423 nm
Solubility in PGMEA
  solubility: 0.1 wt %
[2]
  temperatures at 10% weight loss: 345 °C

## CCOC(=O)/C(C#N)=C/c1ccc(N(CC)CCCCCCN(CC)c2ccc(/C=C(\C#N)C(=O)OCC)cc2)cc1 [Compound No. 46]
[1]
  λmax: 430 nm
Solubility in PGMEA
  solubility: 0.5 wt %
[2]
  temperatures at 10% weight loss: 346 °C
[3]
  relative intensity 230° C., 30 min: 99.9
  λmax: 436 nm
